Data published in patent publication US5045458A, “Antibiotics PB-6042S” (Shionogi & Co., Ltd., priority 1988, dated 1991).
≈ marks a conversion by molar mass, not a printed value. Where two headings read alike, the source gives them in different places.

Key:
[1] = tested on: B. melaninogenicus GAI0413; experiment: MIC against anaerobic bacteria; assay type: cell-based; conditions: B. melaninogenicus GAI0413; read-out: MIC
[2] = filter paper electrophoresis and bioautography (acidic property); assay type: physicochemical
From the text: Other physicochemical properties of PB-6042s in the form of sodium salt are listed below.

F. varium ATCC8501 = experiment: MIC against anaerobic bacteria; assay type: cell-based; conditions: Fusobacterium varium
E. lentum II-1 = experiment: MIC against anaerobic bacteria; assay type: cell-based; conditions: Eggerthella lenta, II1
F. necrophorum ATCC25286 = experiment: MIC against anaerobic bacteria; assay type: cell-based; conditions: Fusobacterium necrophorum
anaerobic bacteria = experiment: antibacterial activity against anaerobic bacteria (summary); assay type: cell-based; conditions: in words
B. fragilis ATCC25285 = experiment: MIC against anaerobic bacteria; assay type: cell-based; conditions: Bacteroides fragilis
P. micros VPI5464-1 = experiment: MIC against anaerobic bacteria; assay type: cell-based; conditions: Parvimonas micra, VPI54641
B. vulgatus ATCC29327 = experiment: MIC against anaerobic bacteria; assay type: cell-based; conditions: Phocaeicola vulgatus
B. ovatus 2505 = experiment: MIC against anaerobic bacteria; assay type: cell-based; conditions: Bacteroides ovatus
P. acens ATCC11827 = experiment: MIC against anaerobic bacteria; assay type: cell-based
E. aerofaciens ATCC25986 = experiment: MIC against anaerobic bacteria; assay type: cell-based; conditions: Collinsella aerofaciens
[3] = tested on: P. asaccharolyticus ATCC14963; experiment: MIC against anaerobic bacteria; assay type: cell-based; conditions: Peptoniphilus asaccharolyticus
[4] = tested on: B. thetaiotaomicron WAL3304; experiment: MIC against anaerobic bacteria; assay type: cell-based; conditions: Bacteroides thetaiotaomicron
S. aureus SR14(R) = experiment: MIC against aerobic bacteria; conditions: Staphylococcus aureus
B. longum ATCC15707 = experiment: MIC against anaerobic bacteria; assay type: cell-based; conditions: Bifidobacterium longum, ATCC15707
E. limosum ATCC8486 = experiment: MIC against anaerobic bacteria; assay type: cell-based; conditions: Eubacterium limosum
B. bifidum JCM1122 = experiment: MIC against anaerobic bacteria; assay type: cell-based; conditions: Bifidobacterium bifidum; B. bifidum JCM1122; read-out: MIC
C. perfringens ATCC13124 = experiment: microbe, parasite or virus in culture; assay type: cell-based; conditions: Clostridium perfringens
[5] = tested on: S. constellatus ATCC27823; experiment: MIC against anaerobic bacteria; assay type: cell-based; conditions: Streptococcus constellatus
E. coli NIHJ JC-2 = experiment: MIC against aerobic bacteria; conditions: Escherichia coli, NIHJJC2
B. adolescentis JCM1250 = experiment: MIC against anaerobic bacteria; assay type: cell-based; conditions: Bifidobacterium adolescentis; B. adolescentis JCM1250; read-out: MIC
P. prevotii ATCC9321 = experiment: MIC against anaerobic bacteria; assay type: cell-based; conditions: Anaerococcus prevotii
P. anaerobius B-38 = experiment: MIC against anaerobic bacteria; assay type: cell-based; conditions: Peptostreptococcus anaerobius, B38
L. ruminis ATCC27780 = experiment: MIC against anaerobic bacteria; assay type: cell-based
C. perfringens SAKAI = experiment: microbe, parasite or virus in culture; assay type: cell-based; conditions: Clostridium perfringens
B. distasonis JU-11-1 = experiment: MIC against anaerobic bacteria; assay type: cell-based; conditions: Parabacteroides distasonis, JU111
B. fragilis GM7000 = experiment: MIC against anaerobic bacteria; assay type: cell-based; conditions: Bacteroides fragilis
F. nucleatum ATCC25586 = experiment: MIC against anaerobic bacteria; assay type: cell-based; conditions: Fusobacterium nucleatum
P. vulgaris CN-329 = experiment: MIC against aerobic bacteria; conditions: Proteus vulgaris, CN329
S. pyogenes C-203 = experiment: MIC against aerobic bacteria; conditions: Streptococcus pyogenes, C203
S. pneumoniae TYPE 1 = experiment: MIC against aerobic bacteria; conditions: Streptococcus pneumoniae, TYPE1
P. aeruginosa A25619 = experiment: MIC against aerobic bacteria; conditions: Pseudomonas aeruginosa
L. plantarum JCM1100 = experiment: MIC against anaerobic bacteria; assay type: cell-based; conditions: Lactiplantibacillus plantarum; L. plantarum JCM1100; read-out: MIC
F. mortiferum ATCC9817 = experiment: MIC against anaerobic bacteria; assay type: cell-based; conditions: Fusobacterium mortiferum; F. mortiferum ATCC9817; read-out: MIC
K. pneumoniae SR1 = experiment: MIC against aerobic bacteria; conditions: Klebsiella pneumoniae
S. aureus FDA JC-1 = experiment: MIC against aerobic bacteria; conditions: Staphylococcus aureus, FDAJC1
C. difficile ATCC17857 = experiment: MIC against anaerobic bacteria; assay type: cell-based; conditions: Clostridioides difficile
V. parvula ATCC10790 = experiment: MIC against anaerobic bacteria; assay type: cell-based; conditions: Veillonella parvula
[6] = antibacterial activity and acidic property of reduced PB-6042A: antibacterial activity; assay type: cell-based; conditions: after H2/PtO2 reduction
[7] = acidic property of reduced PB-6042A; conditions: after H2/PtO2 reduction

Row | SMILES | MIC [1] [µg/mL] | acidic property [2] | MIC (F. varium ATCC8501) [µg/mL] | MIC (E. lentum II-1) [µg/mL] | growth inhibition of anaerobic bacteria (anaerobic bacteria) | MIC (P. micros VPI5464-1) [µg/mL] | MIC (P. acens ATCC11827) [µg/mL] | MIC (S. aureus SR14(R)) [µg/mL] | MIC (B. longum ATCC15707) [µg/mL] | MIC (B. bifidum JCM1122) [µg/mL] | MIC (C. perfringens ATCC13124) [µg/mL] | MIC [5] [µg/mL] | MIC (E. coli NIHJ JC-2) [µg/mL] | MIC (B. adolescentis JCM1250) [µg/mL] | MIC (P. anaerobius B-38) [µg/mL] | MIC (C. perfringens SAKAI) [µg/mL] | MIC (F. nucleatum ATCC25586) [µg/mL] | MIC (P. vulgaris CN-329) [µg/mL] | MIC (S. pyogenes C-203) [µg/mL] | MIC (S. pneumoniae TYPE 1) [µg/mL] | also measured
1 | C=C1OC(=O)C(C(=O)CCCCCCCCCCC)=C1O [PB-6042C] | 6.25 (≈ 21.2 µM) | acidic substances | > 100 | 3.13 (≈ 10.6 µM) | inhibit the growth of anaerobic bacteria, selectively | 0.78 (≈ 2.65 µM) | 0.78 (≈ 2.65 µM) | > 100 | 3.13 (≈ 10.6 µM) | 6.25 (≈ 21.2 µM) | 3.13 (≈ 10.6 µM) | 0.78 (≈ 2.65 µM) | > 100 | 0.78 (≈ 2.65 µM) | 0.78 (≈ 2.65 µM) | 3.13 (≈ 10.6 µM) | 12.5 (≈ 42.5 µM) | > 100 | 12.5 (≈ 42.5 µM) | 12.5 (≈ 42.5 µM) | MIC (F. necrophorum ATCC25286): 12.5 µg/mL (≈ 42.5 µM); MIC (B. fragilis ATCC25285; B. fragilis ATCC25285, read-out: MIC): 1.56 µg/mL (≈ 5.3 µM); MIC (B. vulgatus ATCC29327; ATCC29327): 3.13 µg/mL (≈ 10.6 µM); MIC (B. ovatus 2505; 2505): 3.13 µg/mL (≈ 10.6 µM); MIC (E. aerofaciens ATCC25986; ATCC25986): 3.13 µg/mL (≈ 10.6 µM); MIC ([3]; ATCC14963): 3.13 µg/mL (≈ 10.6 µM); MIC ([4]; WAL3304): 3.13 µg/mL (≈ 10.6 µM); MIC (E. limosum ATCC8486; E. limosum ATCC8486, read-out: MIC): 1.56 µg/mL (≈ 5.3 µM); MIC (P. prevotii ATCC9321; ATCC9321): 3.13 µg/mL (≈ 10.6 µM); MIC (L. ruminis ATCC27780; L. ruminis ATCC27780, read-out: MIC): 1.56 µg/mL (≈ 5.3 µM); MIC (B. distasonis JU-11-1): 3.13 µg/mL (≈ 10.6 µM); MIC (B. fragilis GM7000; GM7000): 3.13 µg/mL (≈ 10.6 µM); MIC (P. aeruginosa A25619): > 100 µg/mL; MIC (L. plantarum JCM1100): 6.25 µg/mL (≈ 21.2 µM); MIC (F. mortiferum ATCC9817): 25 µg/mL (≈ 84.9 µM); MIC (K. pneumoniae SR1): > 100 µg/mL; MIC (S. aureus FDA JC-1): > 100 µg/mL; MIC (C. difficile ATCC17857): 0.78 µg/mL (≈ 2.65 µM)
2 | C=C1OC(=O)C(C(=O)CCCC/C=C\CCCCCCC)=C1O [PB-6042D] | 12.5 (≈ 39 µM) | acidic substances | > 100 | 3.13 (≈ 9.77 µM) | inhibit the growth of anaerobic bacteria, selectively | 0.78 (≈ 2.43 µM) | 1.56 (≈ 4.87 µM) | 12.5 (≈ 39 µM) | 3.13 (≈ 9.77 µM) | 6.25 (≈ 19.5 µM) | 3.13 (≈ 9.77 µM) | 1.56 (≈ 4.87 µM) | > 100 | 6.25 (≈ 19.5 µM) | 1.56 (≈ 4.87 µM) | 3.13 (≈ 9.77 µM) | 25 (≈ 78 µM) | > 100 | 12.5 (≈ 39 µM) | 12.5 (≈ 39 µM) | MIC (B. fragilis ATCC25285; ATCC25285): 3.13 µg/mL (≈ 9.77 µM); MIC (B. vulgatus ATCC29327; B. vulgatus ATCC29327, read-out: MIC): 12.5 µg/mL (≈ 39 µM); MIC (B. ovatus 2505; B. ovatus 2505, read-out: MIC): 12.5 µg/mL (≈ 39 µM); MIC (E. aerofaciens ATCC25986; E. aerofaciens ATCC25986, read-out: MIC): 6.25 µg/mL (≈ 19.5 µM); MIC ([3]; P. asaccharolyticus ATCC14963, read-out: MIC): 6.25 µg/mL (≈ 19.5 µM); MIC ([4]; B. thetaiotaomicron WAL3304, read-out: MIC): 6.25 µg/mL (≈ 19.5 µM); MIC (E. limosum ATCC8486; ATCC8486): 3.13 µg/mL (≈ 9.77 µM); MIC (V. parvula ATCC10790): > 100 µg/mL; MIC (P. prevotii ATCC9321; P. prevotii ATCC9321, read-out: MIC): 6.25 µg/mL (≈ 19.5 µM); MIC (L. ruminis ATCC27780): 3.13 µg/mL (≈ 9.77 µM); MIC (B. distasonis JU-11-1; B. distasonis JU-11-1, read-out: MIC): 12.5 µg/mL (≈ 39 µM); MIC (B. fragilis GM7000; B. fragilis GM7000, read-out: MIC): 6.25 µg/mL (≈ 19.5 µM); MIC (P. aeruginosa A25619): > 100 µg/mL; MIC (L. plantarum JCM1100): 6.25 µg/mL (≈ 19.5 µM); MIC (F. mortiferum ATCC9817): > 100 µg/mL; MIC (K. pneumoniae SR1): > 100 µg/mL; MIC (S. aureus FDA JC-1): > 100 µg/mL; MIC (C. difficile ATCC17857): 1.56 µg/mL (≈ 4.87 µM)
3 | CCCCCCCCCC(=O)C1=C(O)C(C)OC1=O (stereo not drawn) [reduced product] | – | – | – | – | – | – | – | – | – | – | – | – | – | – | – | – | – | – | – | – | antibacterial activity of reduced product [6]: maintained antibacterial activity; acidic property of reduced product [7]: maintained antibacterial activity and acidic property
